Measurements published in ChEMBL document CHEMBL2150882, “Discovery of a new molecular probe ML228: an activator of the hypoxia inducible factor (HIF) pathway” (Bioorg Med Chem Lett, 2012).
Blank lines part the entries; values can stand above or below the compound they belong to. The source made the active and inactive calls. The calls are words filed in the database; no cut-off is given here.

Assays:
[1] = molecular target: Mu-type opioid receptor (Homo sapiens) (UniProt P35372); experiment: Inhibition of human mu opioid receptor at 10 uM by radioligand displacement assay
[2] = molecular target: Prostaglandin E2 receptor EP4 subtype (Homo sapiens) (UniProt P35408); experiment: Inhibition of human prostanoid EP4 receptor at 10 uM by radioligand displacement assay
[3] = Inhibition of proteasome chymotrypsin-like activity using Suc-LLVY-aminoluciferin as substrate by luciferase-coupled assay; format: subcellular
[4] = molecular target: T1, Alpha-1D adrenergic receptor (Homo sapiens) (UniProt P25100); experiment: Inhibition of human alpha1D adrenergic receptor at 10 uM by radioligand displacement assay
T1 sequence (whole entry): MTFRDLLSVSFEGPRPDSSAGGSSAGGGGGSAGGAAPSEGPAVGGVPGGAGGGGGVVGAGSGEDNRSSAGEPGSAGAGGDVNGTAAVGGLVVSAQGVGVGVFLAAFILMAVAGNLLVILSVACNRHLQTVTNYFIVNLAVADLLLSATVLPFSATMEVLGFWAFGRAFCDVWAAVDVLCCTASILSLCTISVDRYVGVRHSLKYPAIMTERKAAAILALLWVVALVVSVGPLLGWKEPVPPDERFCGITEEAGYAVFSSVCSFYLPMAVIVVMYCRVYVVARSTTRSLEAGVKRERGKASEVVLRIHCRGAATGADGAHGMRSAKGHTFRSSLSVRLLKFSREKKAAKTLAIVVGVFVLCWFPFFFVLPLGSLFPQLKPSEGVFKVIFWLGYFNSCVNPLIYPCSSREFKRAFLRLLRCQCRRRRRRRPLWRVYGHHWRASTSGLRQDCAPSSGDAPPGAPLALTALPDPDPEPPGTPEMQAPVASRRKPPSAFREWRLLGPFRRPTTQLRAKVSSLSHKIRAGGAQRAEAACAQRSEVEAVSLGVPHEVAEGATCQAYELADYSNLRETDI

[5] = molecular target: Sodium-dependent dopamine transporter (Homo sapiens) (UniProt Q01959); experiment: Inhibition of human DAT at 10 uM by radioligand displacement assay
U2OS [6] = experiment: Cytotoxicity against human U2OS cells expressing human HIF1alpha by CellTiterGlo assay in presence of 50 uM iron; format: cell-based
[7] = molecular target: Sodium-dependent noradrenaline transporter (Homo sapiens) (UniProt P23975); experiment: Inhibition of human NET at 10 uM by radioligand displacement assay
[8] = molecular target: D(3) dopamine receptor (Homo sapiens) (UniProt P35462); experiment: Inhibition of human dopamine D3 receptor at 10 uM by radioligand displacement assay
[9] = molecular target: T2, Adenosine receptor A3 (Homo sapiens) (UniProt P0DMS8); experiment: Inhibition of human adenosine receptor A3 at 10 uM by radioligand displacement assay
T2 sequence (whole entry): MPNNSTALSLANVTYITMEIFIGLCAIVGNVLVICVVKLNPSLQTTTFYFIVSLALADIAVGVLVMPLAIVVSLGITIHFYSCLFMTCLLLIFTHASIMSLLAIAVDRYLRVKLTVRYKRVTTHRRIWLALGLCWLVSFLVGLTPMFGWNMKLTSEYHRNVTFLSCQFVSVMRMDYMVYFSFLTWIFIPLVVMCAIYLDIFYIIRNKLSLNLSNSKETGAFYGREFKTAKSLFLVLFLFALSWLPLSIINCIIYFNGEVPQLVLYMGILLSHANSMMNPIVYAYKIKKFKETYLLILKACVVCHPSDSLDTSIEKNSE

Homo sapiens = species: Homo sapiens; experiment: Inhibition of human melatonin MT1 receptor at 10 uM by radioligand displacement assay
Rattus norvegicus [10] = species: Rattus norvegicus; experiment: Inhibition of rat sodium channel site 2 at 10 uM by radioligand displacement assay
Rattus norvegicus [11] = species: Rattus norvegicus; experiment: Inhibition of rat L-type calcium channel dihydropyridine binding site at 10 uM by radioligand displacement assay
[12] = molecular target: D(1A) dopamine receptor (Homo sapiens) (UniProt P21728); experiment: Inhibition of human dopamine D1 receptor at 10 uM by radioligand displacement assay
U2OS [13] = experiment: Cytotoxicity against human U2OS cells expressing human HIF1alpha by CellTiterGlo assay in presence of 50 uM zinc; format: cell-based
[14] = molecular target: 5-hydroxytryptamine receptor 2B (Homo sapiens) (UniProt P41595); experiment: Inhibition of human 5HT2B at 10 uM by radioligand displacement assay
[15] = molecular target: Kappa-type opioid receptor (Homo sapiens) (UniProt P41145); experiment: Inhibition of human kappa opioid receptor at 10 uM by radioligand displacement assay
hERG (KCNH2) = hERG (KCNH2) (Homo sapiens, UniProt Q12809); experiment: Inhibition of human ERG at 10 uM by radioligand displacement assay
[16] = molecular target: T3, Alpha-2A adrenergic receptor (Homo sapiens) (UniProt P08913); experiment: Inhibition of human alpha2A adrenergic receptor at 10 uM by radioligand displacement assay
T3 sequence (whole entry): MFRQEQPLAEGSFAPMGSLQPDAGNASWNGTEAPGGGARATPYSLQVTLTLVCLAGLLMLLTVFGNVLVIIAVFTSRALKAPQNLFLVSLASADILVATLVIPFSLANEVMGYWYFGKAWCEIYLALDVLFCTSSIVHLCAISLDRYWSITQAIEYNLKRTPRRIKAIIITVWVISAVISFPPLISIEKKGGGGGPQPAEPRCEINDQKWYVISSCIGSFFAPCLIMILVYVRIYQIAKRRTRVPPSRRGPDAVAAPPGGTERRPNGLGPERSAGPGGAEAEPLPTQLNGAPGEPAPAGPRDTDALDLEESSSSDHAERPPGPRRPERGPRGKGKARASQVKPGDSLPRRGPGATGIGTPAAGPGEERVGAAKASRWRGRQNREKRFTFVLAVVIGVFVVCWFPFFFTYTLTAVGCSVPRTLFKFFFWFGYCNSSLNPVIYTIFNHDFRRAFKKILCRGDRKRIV

[17] = molecular target: Histamine H1 receptor (Homo sapiens) (UniProt P35367); experiment: Inhibition of human histamine H1 receptor at 10 uM by radioligand displacement assay
Chain of Histamine H1 receptor (Homo sapiens) (P35367 whole entry): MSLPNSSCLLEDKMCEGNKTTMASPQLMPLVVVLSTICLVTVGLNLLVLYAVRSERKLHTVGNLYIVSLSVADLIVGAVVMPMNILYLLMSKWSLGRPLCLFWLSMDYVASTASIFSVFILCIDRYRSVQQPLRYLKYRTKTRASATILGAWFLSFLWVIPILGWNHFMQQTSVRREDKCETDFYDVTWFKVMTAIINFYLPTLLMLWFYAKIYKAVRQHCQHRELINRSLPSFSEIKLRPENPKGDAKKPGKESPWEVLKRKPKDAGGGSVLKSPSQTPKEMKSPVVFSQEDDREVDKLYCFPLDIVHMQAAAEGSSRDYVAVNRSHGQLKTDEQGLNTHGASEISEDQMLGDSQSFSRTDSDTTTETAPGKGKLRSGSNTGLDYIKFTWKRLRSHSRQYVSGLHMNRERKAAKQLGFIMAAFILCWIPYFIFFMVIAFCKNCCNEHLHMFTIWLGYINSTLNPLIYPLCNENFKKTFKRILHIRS

Chain of Mu-type opioid receptor (Homo sapiens) (P35372 whole entry): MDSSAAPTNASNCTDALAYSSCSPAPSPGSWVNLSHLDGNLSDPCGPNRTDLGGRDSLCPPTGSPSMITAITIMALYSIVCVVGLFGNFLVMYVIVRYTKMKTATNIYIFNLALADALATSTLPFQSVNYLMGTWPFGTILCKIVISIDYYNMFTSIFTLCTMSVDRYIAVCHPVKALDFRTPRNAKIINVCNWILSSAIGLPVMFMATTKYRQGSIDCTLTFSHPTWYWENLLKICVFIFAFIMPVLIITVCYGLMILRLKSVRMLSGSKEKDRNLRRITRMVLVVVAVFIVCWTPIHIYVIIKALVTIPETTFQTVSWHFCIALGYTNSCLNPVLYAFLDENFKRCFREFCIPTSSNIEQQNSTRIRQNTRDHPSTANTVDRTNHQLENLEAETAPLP
Chain of Sodium-dependent dopamine transporter (Homo sapiens) (Q01959 whole entry): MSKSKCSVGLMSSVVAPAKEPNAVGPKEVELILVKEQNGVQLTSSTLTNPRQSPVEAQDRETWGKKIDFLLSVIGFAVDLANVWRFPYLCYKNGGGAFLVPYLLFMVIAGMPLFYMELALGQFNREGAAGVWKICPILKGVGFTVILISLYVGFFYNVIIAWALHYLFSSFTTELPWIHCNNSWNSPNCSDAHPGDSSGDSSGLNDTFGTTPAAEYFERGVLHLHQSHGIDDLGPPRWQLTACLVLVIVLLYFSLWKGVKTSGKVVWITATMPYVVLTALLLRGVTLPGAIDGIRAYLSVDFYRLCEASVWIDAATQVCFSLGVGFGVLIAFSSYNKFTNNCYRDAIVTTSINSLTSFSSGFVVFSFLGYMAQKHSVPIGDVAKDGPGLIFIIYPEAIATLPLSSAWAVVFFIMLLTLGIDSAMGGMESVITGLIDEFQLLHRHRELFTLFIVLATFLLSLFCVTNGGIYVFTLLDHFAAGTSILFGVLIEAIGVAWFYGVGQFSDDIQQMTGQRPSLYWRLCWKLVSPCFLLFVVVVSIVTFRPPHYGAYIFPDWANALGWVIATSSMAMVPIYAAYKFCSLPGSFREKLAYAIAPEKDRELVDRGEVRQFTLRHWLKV
Chain of D(1A) dopamine receptor (Homo sapiens) (P21728 whole entry): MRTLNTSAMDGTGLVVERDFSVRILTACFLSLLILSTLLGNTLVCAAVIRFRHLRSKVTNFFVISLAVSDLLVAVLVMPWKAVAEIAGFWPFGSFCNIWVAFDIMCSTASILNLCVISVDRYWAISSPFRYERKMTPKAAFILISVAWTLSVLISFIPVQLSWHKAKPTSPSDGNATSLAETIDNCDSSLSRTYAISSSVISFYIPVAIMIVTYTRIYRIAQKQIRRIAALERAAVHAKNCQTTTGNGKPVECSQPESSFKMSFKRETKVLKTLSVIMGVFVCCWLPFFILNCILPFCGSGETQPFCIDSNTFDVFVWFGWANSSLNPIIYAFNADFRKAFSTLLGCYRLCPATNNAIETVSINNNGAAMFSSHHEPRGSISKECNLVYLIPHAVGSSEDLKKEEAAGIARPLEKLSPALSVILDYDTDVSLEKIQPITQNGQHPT
Chain of 5-hydroxytryptamine receptor 2B (Homo sapiens) (P41595 whole entry): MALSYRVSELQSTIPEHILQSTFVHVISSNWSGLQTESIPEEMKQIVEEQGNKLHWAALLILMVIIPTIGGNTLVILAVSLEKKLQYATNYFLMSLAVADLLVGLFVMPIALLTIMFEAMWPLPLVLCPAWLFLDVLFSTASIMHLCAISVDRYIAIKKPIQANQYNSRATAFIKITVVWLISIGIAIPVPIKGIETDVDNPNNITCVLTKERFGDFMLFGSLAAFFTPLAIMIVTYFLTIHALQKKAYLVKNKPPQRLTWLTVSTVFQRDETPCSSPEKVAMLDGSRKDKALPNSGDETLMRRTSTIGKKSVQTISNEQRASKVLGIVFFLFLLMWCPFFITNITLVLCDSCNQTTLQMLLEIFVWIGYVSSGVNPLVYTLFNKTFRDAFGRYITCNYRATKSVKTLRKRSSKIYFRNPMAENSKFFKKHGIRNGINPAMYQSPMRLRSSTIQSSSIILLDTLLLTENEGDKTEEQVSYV
Chain of Kappa-type opioid receptor (Homo sapiens) (P41145 whole entry): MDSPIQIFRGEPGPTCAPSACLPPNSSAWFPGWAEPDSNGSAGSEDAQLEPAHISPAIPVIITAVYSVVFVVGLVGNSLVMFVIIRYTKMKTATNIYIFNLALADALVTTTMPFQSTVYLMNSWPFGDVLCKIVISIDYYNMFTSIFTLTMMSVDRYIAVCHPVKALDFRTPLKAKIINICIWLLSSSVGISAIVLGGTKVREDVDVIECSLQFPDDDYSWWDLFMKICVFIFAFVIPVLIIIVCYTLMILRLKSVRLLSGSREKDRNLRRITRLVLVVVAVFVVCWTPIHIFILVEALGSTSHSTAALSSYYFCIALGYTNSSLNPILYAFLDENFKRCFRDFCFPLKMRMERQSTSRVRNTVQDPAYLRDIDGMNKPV
Chain of Prostaglandin E2 receptor EP4 subtype (Homo sapiens) (P35408 whole entry): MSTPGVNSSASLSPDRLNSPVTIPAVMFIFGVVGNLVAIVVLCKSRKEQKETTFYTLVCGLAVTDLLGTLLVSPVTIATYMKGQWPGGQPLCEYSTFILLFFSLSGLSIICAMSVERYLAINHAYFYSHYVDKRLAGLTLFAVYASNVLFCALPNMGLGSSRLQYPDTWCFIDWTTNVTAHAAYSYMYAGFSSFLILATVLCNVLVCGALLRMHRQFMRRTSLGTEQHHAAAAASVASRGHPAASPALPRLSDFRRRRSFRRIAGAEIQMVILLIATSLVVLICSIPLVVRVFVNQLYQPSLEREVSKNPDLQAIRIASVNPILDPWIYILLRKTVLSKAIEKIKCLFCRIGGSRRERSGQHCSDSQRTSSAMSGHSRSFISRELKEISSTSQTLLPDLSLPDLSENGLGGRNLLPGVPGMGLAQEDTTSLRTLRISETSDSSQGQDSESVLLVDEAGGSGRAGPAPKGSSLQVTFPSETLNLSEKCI
Chain of Sodium-dependent noradrenaline transporter (Homo sapiens) (P23975 whole entry): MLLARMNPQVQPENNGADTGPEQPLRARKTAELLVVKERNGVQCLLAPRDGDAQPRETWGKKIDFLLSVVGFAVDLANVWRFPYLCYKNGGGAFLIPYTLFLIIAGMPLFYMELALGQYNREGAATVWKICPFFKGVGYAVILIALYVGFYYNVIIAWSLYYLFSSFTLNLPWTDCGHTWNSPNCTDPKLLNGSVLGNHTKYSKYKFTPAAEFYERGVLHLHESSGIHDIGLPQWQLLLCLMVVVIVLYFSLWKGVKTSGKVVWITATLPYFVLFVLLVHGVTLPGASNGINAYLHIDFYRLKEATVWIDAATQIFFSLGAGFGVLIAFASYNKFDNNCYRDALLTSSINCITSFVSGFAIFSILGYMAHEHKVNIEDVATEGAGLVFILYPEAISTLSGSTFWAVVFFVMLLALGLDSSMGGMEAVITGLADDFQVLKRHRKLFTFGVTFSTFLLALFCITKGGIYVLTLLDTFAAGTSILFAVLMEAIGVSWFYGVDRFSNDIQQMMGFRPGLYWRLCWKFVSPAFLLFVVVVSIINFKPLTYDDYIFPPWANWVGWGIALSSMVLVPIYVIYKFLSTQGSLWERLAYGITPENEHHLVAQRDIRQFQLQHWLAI
Chain of D(3) dopamine receptor (Homo sapiens) (P35462 whole entry): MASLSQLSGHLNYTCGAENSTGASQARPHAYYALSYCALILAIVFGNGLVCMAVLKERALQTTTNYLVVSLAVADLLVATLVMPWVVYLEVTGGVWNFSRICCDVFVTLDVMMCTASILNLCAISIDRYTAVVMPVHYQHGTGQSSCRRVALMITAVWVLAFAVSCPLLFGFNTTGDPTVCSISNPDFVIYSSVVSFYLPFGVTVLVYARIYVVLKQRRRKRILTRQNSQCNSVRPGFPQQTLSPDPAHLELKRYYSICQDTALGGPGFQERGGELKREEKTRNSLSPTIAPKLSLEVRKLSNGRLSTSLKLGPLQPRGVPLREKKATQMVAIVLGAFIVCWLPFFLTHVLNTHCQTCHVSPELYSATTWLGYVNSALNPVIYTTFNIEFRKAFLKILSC

SMILES: O=C(NCCCn1ccnc1)c1cc(-c2ccccc2)on1
inhibition [1]: inactive

SMILES: CCCCNC(=O)c1cc(-c2ccc(F)cc2)on1
inhibition [1]: inactive

SMILES: c1ccc(-c2ccc(CNc3nc(-c4ccccn4)nnc3-c3ccccc3)cc2)cc1
inhibition [2]: 53% | inhibition [3]: inactive | inhibition [1]: 85% | inhibition [4]: 53% | inhibition [5]: 87% | Activity (U2OS [6]): Non-toxic | inhibition [7]: 67% | inhibition [8]: 67% | inhibition [9]: 80% | inhibition (Homo sapiens): 51% | inhibition (Rattus norvegicus [10]): 105% | inhibition (Rattus norvegicus [11]): 56% | inhibition [12]: 54% | Activity (U2OS [13]): Non-toxic | inhibition [14]: 92% | inhibition [15]: 71% | inhibition at 10 µM (hERG (KCNH2)): 86% | inhibition [16]: 57% | inhibition [17]: 65%

SMILES: O=C(NCCCN1CCOCC1)c1cc(-c2ccccc2)on1
inhibition [1]: inactive

The remaining lines, values ahead:

inhibition [1]: inactive
SMILES: O=C(NCC1CC1)c1cc(-c2ccccc2)on1

inhibition [1]: inactive
SMILES: O=C(NCCCCO)c1cc(-c2ccccc2)on1
